From patent US10376520B2, “Methods for the treatment of cardiovascular disorders” (Galapagos NV, priority 2015, dated 2019)

System: RA patients
Assay: LDL determination, Study 2 (RA patients, monotherapy)
Type: in vivo, human
Conditions: for [LDL] Mean CFB / [LDL] Median CFB: Study 2 12 weeks results
Excerpt: Randomized, double-blind, placebo-controlled, multicenter, phase IIb dose finding study of Compound 1 (dosed as a [Compound 1:HCl:3H2O]) administered for 24 weeks as monotherapy to subjects with moderately to severely active rheumatoid arthritis who have an inadequate response to methotrexate alone
Double-blind, placebo-controlled, monotherapy study in subjects with moderately to severely active RA who have an inadequate response to methotrexate (MTX) (oral or parenteral).
280 subjects randomized to one of 3 doses of Compound 1 (dosed as a [Compound 1:HCl:3H2O]) or to placebo, given once daily (q.d.).
Twelve weeks of treatment with Compound 1 (dosed as a [Compound 1:HCl:3H2O]) at 50 mg, 100 mg, or 200 mg q.d.; or placebo. At Week 12, all subjects on placebo and the subjects on the 50 mg dose who have not achieved 20% improvement in swollen joint count (SJC66) and tender joint count (TJC68) will be assigned to 100 mg q.d. in a blinded fashion and will continue treatment until Week 24. Subjects in the other groups will maintain their randomized treatment until Week 24.
The determination of [LDL]-cholesterol is made using an automated method taking advantage of the selective micellary solubilization of [LDL]-cholesterol by a nonionic detergent and the interaction of a sugar compound and lipoproteins (VLDL and chylomicrons).
When a detergent is included in the enzymatic method for cholesterol determination (cholesterol esterase, cholesterol oxidase coupling reaction), the relative reactivities of cholesterol in the lipoprotein fractions increase in this order: [HDL]<chylomicrons <VLDL <[LDL]. In the presence of Mg^2+, a sugar compound markedly reduces the enzymatic reaction of the cholesterol measurement in VLDL and chylomicrons. The combination of a sugar compound with detergent enables the selective determination of [LDL]-cholesterol in serum. (Friedewald et al., 1972; Rifai et al., 1992)
Homogeneous enzymatic colorimetric assay.
In the presence of peroxidase, the hydrogen peroxide generated reacts with 4-aminoantipyrine and Sodium N-(2-hydroxy-3-sulfopropyl)-3,5-dimethoxyaniline (HSDA) to form a purple-blue dye.
The color intensity of this dye is directly proportional to the cholesterol concentration and is measured photometrically.
Human serum and plasma samples [LDL] determination was done on a Roche/Hitachi Cobas c 701/702 system which automatically calculate the analyte concentration of each sample. Samples containing precipitates are centrifuged before performing the assay.

[1] = 50 mg q.d. non responders switching to 100 mg q.d. at week 12, week 1
[2] = 50 mg q.d. non responders switching to 100 mg q.d. at week 12, week 2
[3] = 50 mg q.d. non responders switching to 100 mg q.d. at week 12, week 4
[4] = 50 mg q.d. non responders switching to 100 mg q.d. at week 12, week 8
[5] = 50 mg q.d. non responders switching to 100 mg q.d. at week 12, week 12

O=C(Nc1nc2cccc(-c3ccc(CN4CCS(=O)(=O)CC4)cc3)n2n1)C1CC1 [Compound 1, cyclopropanecarboxylic acid {5-[4-(1,1-dioxo-thiomorpholin-4-ylmethyl)-phenyl]-[1,2,4]triazolo[1,5-a]pyridin-2yl}-amide]
[LDL] Mean percentage CFB - 24 weeks results [1]: −0.30%
[LDL] Median percentage CFB - 24 weeks results [1]: 2.72%
[LDL] Mean percentage CFB - 24 weeks results [2]: 1.96%
[LDL] Median percentage CFB - 24 weeks results [2]: −0.66%
[LDL] Mean percentage CFB - 24 weeks results [3]: 6.21%
[LDL] Median percentage CFB - 24 weeks results [3]: 1.36%
[LDL] Mean percentage CFB - 24 weeks results [4]: 4.76%
[LDL] Median percentage CFB - 24 weeks results [4]: 2.69%
[LDL] Mean percentage CFB - 24 weeks results [5]: 6.13%
[LDL] Median percentage CFB - 24 weeks results [5]: 3.06%
[LDL] Median percentage CFB - 24 weeks results (50 mg q.d. non responders switching to 100 mg q.d. at week 12, week 16): 7.11%
[LDL] Median percentage CFB - 24 weeks results (50 mg q.d. non responders switching to 100 mg q.d. at week 12, week 20): −0.80%
[LDL] Median percentage CFB - 24 weeks results (50 mg q.d. non responders switching to 100 mg q.d. at week 12, week 24): 5.60%
[LDL] Mean percentage CFB - 24 weeks results (50 mg q.d. responders, week 1): −0.43%
[LDL] Median percentage CFB - 24 weeks results (50 mg q.d. responders, week 1): −0.29%
[LDL] Mean percentage CFB - 24 weeks results (50 mg q.d. responders, week 2): −2.56%
[LDL] Median percentage CFB - 24 weeks results (50 mg q.d. responders, week 2): −2.27%
[LDL] Mean percentage CFB - 24 weeks results (50 mg q.d. responders, week 4): 2.09%
[LDL] Median percentage CFB - 24 weeks results (50 mg q.d. responders, week 4): −1.14%
[LDL] Mean percentage CFB - 24 weeks results (50 mg q.d. responders, week 8): 6.10%
[LDL] Median percentage CFB - 24 weeks results (50 mg q.d. responders, week 8): 5.33%
[LDL] Mean percentage CFB - 24 weeks results (50 mg q.d. responders, week 12): 3.64%
[LDL] Median percentage CFB - 24 weeks results (50 mg q.d. responders, week 12): 0.69%
[LDL] Mean percentage CFB - 24 weeks results (50 mg q.d. responders, week 16): 7.12%
[LDL] Median percentage CFB - 24 weeks results (50 mg q.d. responders, week 16): 7.71%
[LDL] Mean percentage CFB - 24 weeks results (50 mg q.d. responders, week 20): 1.20%
[LDL] Median percentage CFB - 24 weeks results (50 mg q.d. responders, week 20): 3.91%
[LDL] Mean percentage CFB - 24 weeks results (50 mg q.d. responders, week 24): 1.97%
[LDL] Median percentage CFB - 24 weeks results (50 mg q.d. responders, week 24): −0.19%
[LDL] Mean percentage CFB - 12 weeks results (50 mg q.d., week 1): −0.40%
[LDL] Median percentage CFB - 12 weeks results (50 mg q.d., week 1): 0.18%
[LDL] Mean percentage CFB - 12 weeks results (50 mg q.d., week 2): −1.59%
[LDL] Median percentage CFB - 12 weeks results (50 mg q.d., week 2): −1.23%
[LDL] Mean percentage CFB - 12 weeks results (50 mg q.d., week 4): 2.97%
[LDL] Median percentage CFB - 12 weeks results (50 mg q.d., week 4): 0.76%
[LDL] Mean percentage CFB - 12 weeks results (50 mg q.d., week 8): 5.80%
[LDL] Median percentage CFB - 12 weeks results (50 mg q.d., week 8): 4.49%
[LDL] Mean percentage CFB - 12 weeks results (50 mg q.d., week 12): 4.19%
[LDL] Median percentage CFB - 12 weeks results (50 mg q.d., week 12): 1.14%
[LDL] Mean percentage CFB - 12 weeks results (100 mg q.d., week 1): 6.36%
[LDL] Mean percentage CFB - 24 weeks results (100 mg q.d., week 1): 6.36%
[LDL] Median percentage CFB - 12 weeks results (100 mg q.d., week 1): 1.97%
[LDL] Median percentage CFB - 24 weeks results (100 mg q.d., week 1): 1.97%
[LDL] Mean percentage CFB - 12 weeks results (100 mg q.d., week 2): 6.15%
[LDL] Mean percentage CFB - 24 weeks results (100 mg q.d., week 2): 6.15%
[LDL] Median percentage CFB - 24 weeks results (100 mg q.d., week 2): −1.82%
[LDL] Mean percentage CFB - 12 weeks results (100 mg q.d., week 4): 10.29%
[LDL] Mean percentage CFB - 24 weeks results (100 mg q.d., week 4): 10.29%
[LDL] Median percentage CFB - 12 weeks results (100 mg q.d., week 4): 5.08%
[LDL] Median percentage CFB - 24 weeks results (100 mg q.d., week 4): 5.08%
[LDL] Mean percentage CFB - 12 weeks results (100 mg q.d., week 8): 7.39%
[LDL] Mean percentage CFB - 24 weeks results (100 mg q.d., week 8): 7.39%
[LDL] Median percentage CFB - 12 weeks results (100 mg q.d., week 8): 5.34%
[LDL] Median percentage CFB - 24 weeks results (100 mg q.d., week 8): 5.34%
[LDL] Mean percentage CFB - 12 weeks results (100 mg q.d., week 12): 14.31%
[LDL] Mean percentage CFB - 24 weeks results (100 mg q.d., week 12): 14.31%
[LDL] Median percentage CFB - 12 weeks results (100 mg q.d., week 12): 5.78%
[LDL] Median percentage CFB - 24 weeks results (100 mg q.d., week 12): 5.78%
[LDL] Mean percentage CFB - 24 weeks results (100 mg q.d., week 16): 12.10%
[LDL] Median percentage CFB - 24 weeks results (100 mg q.d., week 16): 7.81%
[LDL] Mean percentage CFB - 24 weeks results (100 mg q.d., week 20): 12.84%
[LDL] Median percentage CFB - 24 weeks results (100 mg q.d., week 20): 7.74%
[LDL] Mean percentage CFB - 24 weeks results (100 mg q.d., week 24): 14.01%
[LDL] Median percentage CFB - 24 weeks results (100 mg q.d., week 24): 9.61%
[LDL] Mean percentage CFB - 12 weeks results (200 mg q.d., week 1): 8.06%
[LDL] Mean percentage CFB - 24 weeks results (200 mg q.d., week 1): 8.06%
[LDL] Median percentage CFB - 12 weeks results (200 mg q.d., week 1): 6.59%
[LDL] Median percentage CFB - 24 weeks results (200 mg q.d., week 1): 6.59%
[LDL] Mean percentage CFB - 12 weeks results (200 mg q.d., week 2): 8.39%
[LDL] Mean percentage CFB - 24 weeks results (200 mg q.d., week 2): 8.39%
[LDL] Median percentage CFB - 12 weeks results (200 mg q.d., week 2): 5.81%
[LDL] Median percentage CFB - 24 weeks results (200 mg q.d., week 2): 5.81%
[LDL] Mean percentage CFB - 12 weeks results (200 mg q.d., week 4): 9.99%
[LDL] Mean percentage CFB - 24 weeks results (200 mg q.d., week 4): 9.99%
[LDL] Median percentage CFB - 12 weeks results (200 mg q.d., week 4): 10.14%
[LDL] Median percentage CFB - 24 weeks results (200 mg q.d., week 4): 10.14%
[LDL] Mean percentage CFB - 12 weeks results (200 mg q.d., week 8): 9.80%
[LDL] Mean percentage CFB - 24 weeks results (200 mg q.d., week 8): 9.80%
[LDL] Median percentage CFB - 12 weeks results (200 mg q.d., week 8): 8.13%
[LDL] Median percentage CFB - 24 weeks results (200 mg q.d., week 8): 8.13%
[LDL] Mean percentage CFB - 12 weeks results (200 mg q.d., week 12): 16.80%
[LDL] Mean percentage CFB - 24 weeks results (200 mg q.d., week 12): 16.80%
[LDL] Median percentage CFB - 12 weeks results (200 mg q.d., week 12): 11.50%
[LDL] Median percentage CFB - 24 weeks results (200 mg q.d., week 12): 11.50%
[LDL] Mean percentage CFB - 24 weeks results (200 mg q.d., week 16): 12.24%
[LDL] Median percentage CFB - 24 weeks results (200 mg q.d., week 16): 9.19%
[LDL] Mean percentage CFB - 24 weeks results (200 mg q.d., week 20): 14.33%
[LDL] Median percentage CFB - 24 weeks results (200 mg q.d., week 20): 10.33%
[LDL] Median percentage CFB - 24 weeks results (200 mg q.d., week 24): 13.81%
[LDL] Mean CFB (50 mg q.d., week 1): 0.011 mmol/L
[LDL] Median CFB (50 mg q.d., week 1): 0.005 mmol/L
[LDL] Mean CFB (50 mg q.d., week 2): -0.057 mmol/L
[LDL] Median CFB (50 mg q.d., week 2): -0.040 mmol/L
[LDL] Mean CFB (50 mg q.d., week 4): 0.047 mmol/L
[LDL] Median CFB (50 mg q.d., week 4): 0.025 mmol/L
[LDL] Mean CFB (50 mg q.d., week 8): 0.142 mmol/L
[LDL] Median CFB (50 mg q.d., week 8): 0.130 mmol/L
